Columns and labels:
[1] = ABTS radical scavenging assay; details: 6 min
Procedure: The ABTS radical cation scavenging assay is a decolorization assay frequently used as an antioxidant activity estimation protocol. […] The absorbance is measured at 734 nm and the antioxidant capacity is compared to a standard antioxidant solution, such as ascorbic acid.
For the evaluation of antioxidant activity, the scavenging capacities of all samples were measured via the ABTS assay, as previously described by Kontogiorgis et al. with some modifications. Briefly, an ethanolic standard ABTS solution (7 mM) was prepared by the addition of ABTS salt and potassium persulfate. […] Each sample was diluted in DMSO and tested in triplicate. The tested mixture contained 10–20 µL of sample and 990–980 µL of the ABTS solution, for a total volume of 1 ml. Blank samples contained equal amounts of DMSO instead of the coumarin analogues, and ascorbic acid was used as a reference sample for the final evaluation of the ABTS scavenging capacity. All mixtures were stored at room temperature to allow decolorization and measured after 6 min. The percentage reduction of the ABTS radical was evaluated according to the following Equation (3):(3) % Reduction=Control OD (mean)−Sample OD (mean)/Control OD (mean)×100

[2] = test system: HaCaT cells; experiment: DCF-DA assay (intracellular ROS after H2O2); assay type: cell-based, human; details: Homo sapiens, 100 μΜ, H2O2 treatment, 24 h, read-out: DCFDA Assay, % (100 μΜ)
Source text: In the setting of evaluating bioactive compounds in terms of antioxidant capacity in various cell lines, DCF-DA is the most widely used assay for the detection of intracellular H2O2 and oxidative stress. DCF-DA is cell-permeable and is hydrolyzed intracellularly to the DCFH carboxylate anion, which is retained in the cell.
DCFDA is a fluorescent dye that measures the activity of hydroxyl radicals, peroxyl radicals, and other reactive oxygen species (ROS) within the cell. The DCFDA analysis protocol is based on the diffusion of DCFDA into the cell. It is then deacetylated from cellular esterases to a non-fluorescent compound, which is later oxidized by ROS to 2’,7’ -dichlorofluoroscein (DCF). The produced compound (DCF) is fluorescent and is detected by fluorescence spectroscopy at 485/535 nm (excitation/emission).
For the experimental procedure a standard solution of DCF-DA (20mM) in DMSO was prepared which was stored in the dark (−20 °C) until use. In a 96-well plate, cells were cultured to a density of 3 × 10^4 cells/well.
The cells remained in the incubator (37 °C, 5% CO2) for 24 h, after which an appropriate amount of H2O2 (2 mM) was added and the dish was returned for incubation for the next 2 h. This was followed by the addition of the test substances (100μM) and incubation for 24 h. At the end of the treatment time, all wells were washed with PBS, and DCF-DA solution (working concentration: 10 μM) (in 200 μL of nutrient) was added and incubated for 40 min.
After incubation, the medium with the DCF-DA was removed and replaced with FBS-free DMEM. The measurement of the […] was made immediately after that in a plate reader at 495/530 nm (excitation/emission).
All samples were tested in triplicates, against a control (without effects), blank (without cells), and positive control (standard 100 μM Ascorbic acid solution was used).
The percentage of antioxidant capacity (%) was calculated according to the following Equation (6) evaluating the presence of ROS [42]:(6) % AI=( OD Sample 530 nm−Blank)−(OD Control 530 nm−Blank)/(OD Control 530 nm−Blank) × 100

[3] = MTT cell viability assay, HaCaT; assay type: cell-based, human; details: human, HaCaT cells, 100 μΜ, 24 h
Source text: The MTT assay (3- [4,5-dimethylthiazol-2-yl] -2,5 diphenyl tetrazole) is based on the conversion of MTT to formazan crystals by living cells, which determines mitochondrial activity. Since for most cell populations total mitochondrial activity is related to the number of viable cells, this assay is widely used to measure the in vitro cytotoxic effects of drugs on various cell lines or primary cells. The principle of the MTT assay is that for most viable cells the mitochondrial activity is stable, and therefore, an increase or decrease in the number of viable cells is linearly related to mitochondrial activity. The mitochondrial activity of the cells is reflected by the conversion of the MTT tetrazole salt to formazan crystals (bright purple), which can be solubilized (in this protocol with DMSO) for homogeneous measurement. Thus, any increase or decrease in the number of viable cells can be detected by measuring the formazan concentration reflected in the optical density (OD) measurement at 540 nm with a reference absorption of 720 nm.
All the compounds were tested for their cytotoxic activity against blank and control samples in the human epidermal keratinocyte line (HaCaT), at the concentration of 100 μΜ, and the results are presented in Table 4.
(§1) This protocol was used for the evaluation of cell viability and all the cell lines. It must be noted that this assay describes the count of cells that remain alive after the treatment. For the experimental procedure a standard solution of MTT 1mg/mL in PBS was prepared which after filtration ([…] filter (Millipore, Carrigtwohill, Ireland)) was stored in the dark (4–8 °C) until use. In a 96-well plate, HaCaT, A549 and A375 cells were seeded in a number of 30 × 10^4 cells/well for each evaluation series respectively. The cells were incubated (37 °C, 5% CO2) for 24 h, followed by the addition of the tested analogues (100 μM, diluted in DMEM) and another 24-h incubation. Next, appropriate amount of MTT was added in the tested wells and the plate returned to the incubator for the next 4 h for the formation of the formazan crystals. The formazan crystals were then redissolved by adding DMSO (100 μL) and stirring lightly for 40 min, after which the absorbance was measured in a plate reader at 540 nm with a reference absorbance of 720 nm.
(§2) All samples were tested in triplicate, against a control (only cells), blank (no cells), and positive control (100 μM standard silibinin solution was used as a “cell-killing” standard).

[4] = test system: A549 cells; experiment: MTT cytotoxicity assay, A549; assay type: cell-based, human; details: Homo sapiens; A549, 100 μΜ, 24 h; read-out: Cell Toxicity A549 % (100 μΜ)
Procedure: (§3) Furthermore, the coumarin compounds synthesized in this study were also evaluated for their cytotoxicity against A549 (adenocarcinomic human alveolar basal epithelial cells) and A375 (human melanoma) cell lines.
as §1, §2

[5] = test system: A375 cells; experiment: MTT cytotoxicity assay, A375; assay type: cell-based, human; details: Homo sapiens, A-375, 24 h, A375, 100 μΜ, read-out: Cell Toxicity A375 % (100 μΜ)
Procedure: as §3, §1, §2

[6] = Hydroxyl (HO•) free radical scavenging assay (competition with DMSO)
Source text: The hydroxyl (HO^•) free radical is considered as the most toxic and reactive radical among the ROS, leading to cellular or protein damage, membrane destruction, and even to cellular death when encountered in excess concentration. In this context, the evaluation of the hydroxyl radical scavenging activity of the coumarin analogues was essential. Hydroxyl radicals are mainly produced by the Haber–Weiss reaction in the presence of iron or copper ions. In this protocol, iron-EDTA solution, which catalyzes the autooxidation of ascorbic acid, was used as the hydroxyl radical generation system. In general, the hydroxyl radicals formed oxidize the DMSO to form formaldehyde. The reaction involves the initial interaction of DMSO with the hydroxyl radicals to give methyl radicals, with the final product being formaldehyde, which is determined by Nash method. The intensity of the yellow solution formed was measured at 412 nm against a reagent blank.
For the evaluation of hydroxyl radical scavenging ability, the protocol described by Kontogiorgis et al. was used. In short, each sample was tested in quadruplicate (A, B, C, D). For A and B, 10 μL of coumarin analogs diluted in DMSO (100 mM) were added; for C and D were the respective blanks. Standards (containing DMSO solution) and blanks were all prepared in a similar manner; to the latter an equal amount (10 µL) of solvent was added instead of the tested analogues. According to the protocol described by Klein et al., standard solutions of EDTA, FeCl3, ascorbic acid, and buffer solution (pH 7.4) were also added to each of the tested mixtures. All mixtures were incubated at 37 °C for 30 min, and then 1 mL of Nash solution and […] of CCl3COOH solution were added. After a 10min incubation at 60 °C to allow the formation of the yellow mixture, the absorbance was measured at […].
The results were calculated as performance percentages in relation to the respective standards and blanks according to the following Equation (4):(4) % Scavenging ability= Mean OD(A+B)−Mean OD(C+D)/Mean OD(A+B)

[7] = Inhibition of AAPH induced linoleic acid oxidation (lipid peroxidation); details: 100 μΜ
Source text: AAPH induced linoleic acid oxidation has been developed as a quick and reliable antioxidant activity assay. It is based on the inhibition of linoleic acid oxidation, initiated by the thermal free radical producer 2,2′-azobis(2-amidinopropane) dihydrochloride (AAPH), providing a measure of how efficiently antioxidants protect against lipid oxidation in vitro. Oxidation of exogenous linoleic acid by AAPH is followed by UV spectrophotometry at 234 nm in a highly diluted sample [38].
For the reference sample in a UV cuvette, 10 μL of the test sample (100 μM diluted in DMSO), 10 μL linoleic acid (LA) (16 mM), and buffer solution (pH 7.4) were added to a final volume of 1ml. For the measurement sample, in a UV cuvette, 10 μL of test sample, 50 μL AAPH (40 mM), 10 μL LA, and buffer solution were added to a final volume of 1 mL. Standard and blank samples were prepared in the same way using DMSO (solvent) instead of the tested coumarin analogues. The absorbance was measured after 2 min at 37 °C at 234 nm. Results were obtained via the following Equation (5):(5) %Inhibition=(Standard−Blank)−(Reference Sample−Measurement Sample)/(Standard−Blank) × 100

| SMILES | ABTS^•+ % (100 μΜ) [1] [%] | inhibition at 100 µM [2] [%] | viability at 24 h, 100 μM [3] [%] | cytotoxicity at 100 µM [4] [%] | cytotoxicity at 100 µM [5] [%] | HO^• % (100 μΜ) scavenging [6] [%] | AAPH % inhibition (100 μΜ) [7] [%] |
| --- | --- | --- | --- | --- | --- | --- | --- |
| O=C1O[C@H]([C@@H](O)CO)C(O)=C1O [Ascorbic acid, reference compound] | 99.1 | 87 | – | – | – | – | – |
| COc1cc(C2Oc3cc([C@H]4Oc5cc(O)cc(O)c5C(=O)[C@@H]4O)ccc3OC2CO)ccc1O (some centres unmarked) [Silibinin, reference compound] | – | – | 35.7 | 78.3 | 84.4 | – | – |
| Cc1c(C)c2c(c(C)c1O)CCC(C)(C(=O)O)O2 (centres unmarked) [Trolox, reference compound] | 92.0 | – | – | – | – | 85.0 | 92 |

— paper PMC8512853, “Synthesis, Bioactivity, Pharmacokinetic and Biomimetic Properties of Multi-Substituted Coumarin Derivatives” (Molecules, 2021)
